Reference: paper PMC4277420, “Assessment of [^125I]WYE-230949 as a Novel Histamine H3 Receptor Radiopharmaceutical” (PLoS ONE, 2014)

What was measured:
[1] = Partition and distribution co-efficients (logP and logD), shake-flask method; type: physicochemical
Experimental: The lipophilicity of [^125I]WYE-230949 was determined in octanol/water and at physiological pH using a modification of the shake-flask method. […] The radioactivity incorporated in both phases was determined using a gamma counter (Cobra Gamma Counter, Packard, Perkin Elmer Life and Analytical Sciences, Boston, MA, USA). The assay was performed in triplicate on 3 separate occasions. LogP was calculated to be log [counts in octanol/counts in water] and logD was calculated to be log [counts in octanol/counts in pH 7.4 buffer].

[2] = Ex vivo biodistribution; type: in vivo, rat; settings: for brain uptake: i.v.
Experimental: (§1) Animal experiments were conducted under the UK Animals (Scientific Procedures) Act 1986. This work was approved by the ethical review committee at the University of Glasgow (PPL: 60/3436) prior to the start of study. Naïve male Sprague-Dawley rats (Harlan, UK), weighing 217 to 352 g were either conscious or anaesthetised (2.5–3% isoflurane via a tracheostomy and artificial ventilation in 70/30% N2O/O2) for the duration of the experiment. Anaesthetised rats had their respiration and temperature monitored throughout. [^125I]WYE-230949 was administered via a femoral vein cannula to anaesthetised rats or via the lateral tail vein to conscious rats. The injected dose for each rat was calculated by measuring the syringe in a dose calibrator before and after [^125I]WYE-230949 administration. The radioactive and radiochemical amounts administered to individual rats ranged from 12.6 to 24.5 MBq and 0.32 to 0.70 µg/kg respectively in all in vivo studies.
Ex vivo biodistribution studies were performed in both conscious and anaesthetised rats in order to investigate the effect of anaesthesia on [^125I]WYE-230949 uptake. At 30 or 120 min following [^125I]WYE-230949 administration rats were killed by cervical dislocation. These time points were chosen based on the biological half life of [^125I]WYE-230949 determined from microSPECT imaging studies. Serial arterial blood sampling via a femoral artery cannula was performed in anaesthetised rats only. Blood was collected into heparin-coated tubes for analysis of plasma and into EDTA coated tubes for analysis of whole blood. At either 30 or 120 min following [^125I]WYE-230949 administration rats were killed by cervical dislocation and the brain, heart, lungs, kidneys and liver dissected. Samples were counted on a Gamma Scintillation Counter (Packard Cobra II D5010, UK) and counts per minute (cpm) converted to kBq using a standard curve. Radioactivity was corrected for decay of ^125I and expressed per sample weight and as a percentage of injected dose (%ID/g tissue).

[3] = target: T1, histamine H3 receptor (Rattus norvegicus, UniProt Q9QYN8); assay: In vitro autoradiography on rat brain sections; type: binding; settings: 5 nM radioligand, non-specific with 5 µM iodophenpropit
T1 construct: Sections (20 µm) cut from a frozen rat brain were pre-incubated in Tris-HCl buffer; from tissue
T1 sequence (Q9QYN8 whole entry): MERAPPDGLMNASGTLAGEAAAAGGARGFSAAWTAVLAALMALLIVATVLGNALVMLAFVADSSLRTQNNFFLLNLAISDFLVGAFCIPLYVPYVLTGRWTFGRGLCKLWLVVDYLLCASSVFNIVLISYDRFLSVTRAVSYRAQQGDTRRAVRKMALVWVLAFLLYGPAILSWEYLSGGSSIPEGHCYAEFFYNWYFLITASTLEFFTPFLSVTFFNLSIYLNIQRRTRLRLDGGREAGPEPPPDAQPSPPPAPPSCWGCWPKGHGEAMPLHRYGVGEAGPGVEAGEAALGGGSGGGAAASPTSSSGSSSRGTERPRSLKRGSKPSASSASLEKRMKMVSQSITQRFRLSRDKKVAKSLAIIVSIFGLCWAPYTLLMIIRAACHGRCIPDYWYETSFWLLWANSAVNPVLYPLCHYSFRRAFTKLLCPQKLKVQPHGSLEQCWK
Experimental: Sections (20 µm) cut from a frozen rat brain were pre-incubated in Tris-HCl buffer (50 mM, pH 7.4; EDTA 5 mM) for 15 min then incubated in 5 nM [^125I]WYE-230949 for 90 min at room temperature. Non-specific binding was defined in adjacent sections in the presence of 5 µM iodophenpropit dihydrobromide. Sections were washed (2×30 min in Tris buffer) and briefly (15 s) rinsed in distilled water before drying and apposition to Kodak Biomax for 24 h. These autoradiograms were generated only for visual comparison with those obtained ex vivo.

[4] = In vivo microSPECT imaging of brain uptake; parameters: species or system rat
Experimental: as §1
MicroSPECT imaging was performed in order to image the uptake of [^125I]WYE-230949 in the brain over time. SPECT scanning was performed using a MollyQ 50 microSPECT scanner (Neurophysics Corp., Shirley, MA, U.S.A.). Rats were anaesthetised for the duration of scan (2–3% isoflurane in 70/30% N2O/O2) and physiological parameters were maintained as described previously. The scanning protocol was designed to ensure that a forebrain slice encompassing structures dense in H3 bindings sites including cortex, striatum, hippocampus and thalamus was captured; the first slice being 14.4 mm caudal to the eyes, approximately at the level of the caudate nucleus. Scanning was commenced 12 min prior to intravenous injection of [^125I]WYE-230949 via the tail vein. Ten sequential coronal slices (400 µm/slice) were collected over a total scanning distance of 4 mm with a scanning time of 12 min per repetition. […] The mean intensity of the ROI in each slice of the SPECT images was measured by plotting a z-axis profile. […] Finally these values were expressed as % of injected dose per ml of tissue and plotted against time.

Question: What does the source list for `O=C(c1ccc(Cn2cnc3cccc([125I])c32)cc1)N1CC[C@H](N2CCCC2)C1` [[^125I]WYE-230949]?
Answer: logD7.4 ([1]; octanol/phosphate buffer pH 7.4, n = 3): 1.64±0.04; logP ([1]; octanol/water, n = 3): 1.59±0.04; brain uptake ([2]; 30 min, anaesthetised rats): 0.11 %ID/g; brain uptake ([2]; 30 min, conscious rats): 0.06±0.01 %ID/g; brain uptake ([2]; 120 min, anaesthetised rats): 0.06±0.01 %ID/g; brain uptake ([2]; 120 min, conscious rats): 0.03±0.003 %ID/g; peak radioactivity in plasma ([2]; anaesthetised rats, n = 6): 4.04±1.14 %ID/g of tissue; peak radioactivity in whole blood ([2]; anaesthetised rats, n = 6): 3.14±0.26 %ID/g of tissue; time of peak radioactivity in plasma ([2]; anaesthetised rats, n = 6): 0.38 ± 0.02 min; time of peak radioactivity in whole blood ([2]; anaesthetised rats, n = 6): 0.50 ± 0.03 min; regional distribution of binding in rat brain [3]: corresponded with known histamine H3 receptor distribution; maximum brain uptake (microSPECT) ([4]; first 12 min following i.v. injection, anaesthetised rats, n = 5): 0.14±0.01 % ID/ml; maximum brain uptake (SPECT), as restated in discussion ([4]; first 12 min post injection, rats): 0.14 %ID/g; half-life in rat brain ([4]; microSPECT time activity curve): 45.4 min
